The source of these data is PMC7558535, “In Vitro Metabolism of DWP16001, a Novel Sodium-Glucose Cotransporter 2 Inhibitor, in Human and Animal Hepatocytes” (Pharmaceutics, 2020).

Data set [1] can be described thus: Metabolic stability in dog hepatocytes. It is filed as in vitro ADME. Conditions: pooled cryopreserved hepatocytes, dog hepatocytes. As to the method: (§1) To evaluate the metabolic stability of DWP16001 in human, dog, monkey, mouse, and rat hepatocytes, pooled cryopreserved hepatocytes were carefully thawed in recovery medium and resuspended in incubation medium (Krebs–Henseleit buffer for mouse, rat, and human; William’s E media for dog and monkey) to 0.5 × 10^6 cells/mL for mouse, 0.67 × 10^6 cells/mL for rat, and 1.0 × 10^6 cells/mL for dog, monkey, and human in accordance with the manufacturer’s protocols. Then, 60-μL aliquots of these hepatocyte suspensions and an equal volume of 2 μM DWP16001 in incubation medium were mixed in 96-well plates and incubated in triplicate for 0, 30, 60, 90, 120, 180, or 240 min in a CO2 incubator at 37 °C. Reactions were stopped by addition of 120 µL of ice-cold acetonitrile to each well and the cell suspension was sonicated for 5 min at 4 °C, followed by centrifugation at 15,000× g for 10 min at 4 °C after 5 min of sonication. 80-µL aliquots of the supernatants were then vortex-mixed with 20 μL of ice-cold ketoconazole (an internal standard) in acetonitrile and analyzed by LC–tandem mass spectrometry (LC-MS/MS). The peak area ratios of DWP16001 versus internal standard at each sampling point were used for the subsequent calculation. Elimination parameters, including half-life (t1/2), intrinsic clearance (Clint), and hepatic clearance (Clhep) of DWP16001 in mouse, rat, dog, monkey, and human were calculated by the following equations [19]. (1) t1/2min=ln2/−k elimination slope (2) ClintmL/min/kg=ln2/t1/2×mL incubation/hepatocytes 10^6 cells×B×10^6 cells/g liver×A g liver/kg BW (3) ClhepmL/min/kg=Qh×Clint/Qh+Clint (4) Hepatic extraction ratio = Clhep/Qh
(§2) Here, A has values of 87.5, 40, 32, 32, and 25.7; B has values of 135, 117, 215, 120, and 139; Qh (representing hepatic blood flow) has values of 90, 55.2, 30.9, 43.4, and 20.7 mL/min/kg, for mouse, rat, dog, monkey, and human, respectively. Hepatic extraction ratio values of ≤ 0.25, 0.25–0.75, and ≥ 0.75 were regarded as low, moderate, and high, respectively.

The subject of the next data set is dog hepatocytes. As to the kind of experiment: Metabolic stability in dog hepatocytes. It is filed as in vitro ADME. As to the method: as §1, §2
The nature of data set [2]: Metabolic stability in monkey hepatocytes. It is filed as in vitro ADME. To be noted: pooled cryopreserved hepatocytes, monkey hepatocytes. As to the method: as §1, §2
In the next data set the test system is monkey hepatocytes. As to the kind of experiment: Metabolic stability in monkey hepatocytes. It is filed as in vitro ADME. As to the method:
as §1, §2

A short description of data set [3]: Metabolic stability in mouse hepatocytes. It is filed as in vitro ADME. To be noted: pooled cryopreserved hepatocytes, mouse hepatocytes. The method, then:
as §1, §2

The next data set deals with mouse hepatocytes. As to the kind of experiment: Metabolic stability in mouse hepatocytes. It is filed as in vitro ADME. The method, then:
as §1, §2

Data set [4] can be described thus: Metabolic stability in rat hepatocytes. To be noted: pooled cryopreserved hepatocytes. It is filed as in vitro ADME. As to the method: as §1, §2
A further data set deals with T1, CYP2C19 (Homo sapiens, UniProt P33261).
T1 construct: purchased Corning Life Sciences
T1 sequence (P33261 whole entry): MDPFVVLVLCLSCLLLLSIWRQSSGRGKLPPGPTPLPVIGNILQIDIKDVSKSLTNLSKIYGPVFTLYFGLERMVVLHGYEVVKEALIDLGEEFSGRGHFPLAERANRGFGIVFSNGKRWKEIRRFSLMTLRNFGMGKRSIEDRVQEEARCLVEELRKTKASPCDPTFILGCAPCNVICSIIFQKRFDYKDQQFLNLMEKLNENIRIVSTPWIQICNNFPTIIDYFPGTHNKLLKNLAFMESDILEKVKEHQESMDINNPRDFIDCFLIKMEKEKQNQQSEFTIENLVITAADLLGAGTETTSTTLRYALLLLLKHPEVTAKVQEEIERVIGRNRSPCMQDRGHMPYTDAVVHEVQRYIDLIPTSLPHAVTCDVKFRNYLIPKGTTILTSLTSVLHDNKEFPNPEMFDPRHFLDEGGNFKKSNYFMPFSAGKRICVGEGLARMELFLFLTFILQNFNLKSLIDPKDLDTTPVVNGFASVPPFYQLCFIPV
Kind of data set: CYP screening, recombinant CYP2C19. It is filed as in vitro ADME. As to the method:
(§3) DWP16001, M1, or M2 was incubated with 11 human cDNA-expressed CYP enzymes (1A1, 1A2, 2A6, 2B6, 2C8, 2C9, 2C19, 2D6, 2E1, 3A4, and 3A5) to identify the CYP enzymes involved in the metabolism of DWP16001. Reaction mixtures of 95 µL containing DWP16001 (final concentration: 5 µM), M1 or M2 (final concentration: 10 µM), and CYPs (final amount: 10 pmol) were prepared in 0.1 M potassium phosphate buffer (pH 7.4). The reaction was started by adding 5 µL of NADPH-generating system; the mixtures were incubated for 30 min at 37 °C in triplicate. Reactions were stopped by the addition of 400 µL of ice-cold ketoconazole (internal standard, 200 ng/mL) in ice-cold acetonitrile. Samples were centrifuged at 15,000× g for 8 min at 4 °C. Seventy-five microliter aliquots of the supernatants were diluted with 75 µL of deionized water and analyzed using an LC–MS/MS system.

For the next data set, the target named is T2, CYP3A4 (Homo sapiens, UniProt P08684).
T2 construct: purchased Corning Life Sciences
T2 sequence (P08684 whole entry): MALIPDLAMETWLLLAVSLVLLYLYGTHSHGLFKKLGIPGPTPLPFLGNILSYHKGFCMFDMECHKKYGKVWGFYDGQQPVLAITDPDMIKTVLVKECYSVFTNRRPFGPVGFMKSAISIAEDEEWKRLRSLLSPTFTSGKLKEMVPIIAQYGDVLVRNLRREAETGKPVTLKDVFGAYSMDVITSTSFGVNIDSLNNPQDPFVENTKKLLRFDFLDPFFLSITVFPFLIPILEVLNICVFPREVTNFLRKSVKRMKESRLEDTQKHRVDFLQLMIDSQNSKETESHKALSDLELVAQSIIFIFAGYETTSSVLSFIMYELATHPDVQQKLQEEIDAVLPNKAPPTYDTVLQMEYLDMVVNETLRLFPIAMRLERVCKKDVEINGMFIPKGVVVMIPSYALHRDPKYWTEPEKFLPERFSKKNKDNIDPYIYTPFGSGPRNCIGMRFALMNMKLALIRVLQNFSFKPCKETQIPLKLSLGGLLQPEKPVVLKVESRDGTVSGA
Kind of data set: CYP screening, recombinant CYP3A4. It is filed as in vitro ADME. The method, then:
as §3

In the next data set the target is T3, UGT1A4 (Homo sapiens, UniProt P22310).
T3 construct: purchased Corning Life Sciences
T3 sequence (P22310 29-534): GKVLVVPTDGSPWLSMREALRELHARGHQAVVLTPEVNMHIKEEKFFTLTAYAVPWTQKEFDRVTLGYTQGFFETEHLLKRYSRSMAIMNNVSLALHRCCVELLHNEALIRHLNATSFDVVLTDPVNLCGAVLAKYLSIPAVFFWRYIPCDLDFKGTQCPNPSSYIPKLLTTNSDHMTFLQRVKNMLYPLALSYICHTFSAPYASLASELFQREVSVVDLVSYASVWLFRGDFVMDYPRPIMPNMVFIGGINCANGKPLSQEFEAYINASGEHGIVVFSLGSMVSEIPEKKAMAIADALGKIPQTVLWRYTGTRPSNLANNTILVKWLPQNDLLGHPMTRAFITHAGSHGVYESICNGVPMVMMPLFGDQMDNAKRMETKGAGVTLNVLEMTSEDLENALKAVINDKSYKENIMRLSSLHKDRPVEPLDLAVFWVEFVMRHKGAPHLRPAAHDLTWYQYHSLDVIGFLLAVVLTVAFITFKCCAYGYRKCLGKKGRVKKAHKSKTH
Kind of data set: UGT screening, cDNA-expressed UGT1A4. It is filed as in vitro ADME. The method, then:
To screen for UGT enzymes responsible for glucuronidation of DWP16001, 100 μL of reaction mixtures containing 13 human cDNA-expressed UGT enzymes (1A1, 1A3, 1A4, 1A6, 1A7, 1A8, 1A9, 1A10, 2B4, 2B7, 2B10, 2B15, and 2B17) at 0.1 mg protein/mL, 5 mM UDPGA, 0.025 mg/mL alamethicin, and 25 μM DWP16001 or M1 in 50 mM Tris buffer (pH 7.4) were incubated at 37 °C for 30 min in triplicate. Reactions were stopped by adding 100 μL of ketoconazole (internal standard, 200 ng/mL) in acetonitrile, followed by vortex-mixing and centrifugation (15,000× g, 8 min, 4 °C). The supernatant (75 μL) was diluted with equal volume of 30% acetonitrile and aliquots (5 μL) were injected into an LC-MS/MS system.

A further data set has as its system SGLT2. Further details: method as in PMID 32183468. To be noted: read-out: IC50 (SGLT2 inhibition); cited from earlier work.

Take `OC[C@H]1O[C@@H](c2cc(Cc3ccc(C4CC4)cc3)c(Cl)c3c2CCO3)[C@H](O)[C@@H](O)[C@@H]1O` [DWP16001, (2S,3R,4R,5S,6R)-2-(7-chloro-6-(4-cyclopropylbenzyl)-2,3-dihydrobenzofuran-4-yl)-6-(hydroxymethyl)tetrahydro-2H-pyran-3,4,5-triol]: the CLint scaled at 1 μM in [1] was determined as 42.7 mL/min/kg; in data set [2] it was 32.3 mL/min/kg; in [3] it was 61.4 mL/min/kg; in data set [4], 9.8 mL/min/kg. Also, the half-life at 1 μM was found to be 3.73 h in data set [1] (37 °C, 0-240 min); 2.75 h in [2] (37 °C, 0-240 min); 8.88 h in [3] (37 °C, 0-240 min); 16.5 h in data set [4] (37 °C, 0-240 min). Besides, the “Hepatic extraction ratio class” value in the data set on dog hepatocytes (dog), with monkey hepatocytes (monkey) and with mouse hepatocytes (mouse) was “moderate (0.25–0.75)” throughout. In addition, the Clhep in the data set on dog hepatocytes (dog hepatocytes, well-stirred model) is 17.9 mL/min/kg; in the data set with monkey hepatocytes (monkey hepatocytes, well-stirred model) it was 18.5 mL/min/kg; with mouse hepatocytes (mouse hepatocytes, well-stirred model), 36.5 mL/min/kg. Besides, the values for the Hepatic extraction ratio in the data set on monkey hepatocytes (monkey hepatocytes) and in the data set with mouse hepatocytes (mouse hepatocytes) were 0.43 and 0.41, respectively. In addition, the “Substrate of CYP2C19” value at CYP2C19 was “substrate”. Further, the “Substrate of CYP3A4” value on CYP3A4 is on record as “substrate”. The “Substrate of UGT1A4” value at UGT1A4 is on record as “substrate”. Also, the 50% inhibitory concentration (IC50) in the data set with SGLT2 was 0.8 ± 0.3 nM.

Usually CLint scaled stands for the capacity of the preparation to metabolise the compound, expressed as a volume cleared per time. A word on the half-life: it is how long it takes for the measured level to halve. The IC50 is the concentration at which inhibition is half-maximal.
